Experimental data taken from patent publication US9713614B2, “Combination of HMG-CoA reductase inhibitors with phosphodiesterase 4 inhibitors for the treatment of inflammatory pulmonary diseases” (TAKEDA GMBH, priority 2006, dated 2017).

Tested on: LPS-induced systemic TNFα release
Assay: Inhibition of LPS-induced systemic TNFα release in rats
Assay type: in vivo, rat
Settings: for ED50: Rattus norvegicus, male Sprague Dawley rats, by gavage 1 h before i.v. LPS 0.1 mg/kg, plasma TNFα by ELISA 90 min after LPS, from dose-response curves
Experimental: Pharmacology: Synergistic Inhibition of LPS-Induced Systemic TNFα Release in Rats by a Combination of ATORVASTATIN Hemi-Calcium Sesqui-Hydrate and 2-{4-[(4aS,8aR)-4-(3,4-dimethoxyphenyl)-1-oxo-4a,5,8,8a-tetrahydro-1H-phthalazin-2-yl]-piperidin-1-yl}-acetamide (COMPOUND A) Animals:
male Sprague Dawley rats 200-280 g
ATORVASTATIN hemi-calcium sesqui-hydrate (Alexis Pharmaceuticals, San Diego, Calif., USA) and COMPOUND A (ALTANA Pharma, Konstanz, Germany).
Drugs were administered by gavage as a methocel/polyethylenglycol 400 suspension 1 h before intravenous administration of LPS (0.1 mg/kg). Euthanasia was induced 90 minutes later by injecting pentobarbital (48 mg/kg) and heparin (1,000 U/kg). Heparinized blood was obtained by heart puncture. Blood was centrifuged (21,000×g, 4° C., 15 min), and plasma samples were kept frozen at −80° C. until determination of TNFα levels by a commercially available ELISA kit (Quantakine®M, Rat TNFα immunoassay, R&D, MN, USA).
All data are given as mean±SEM. Significances were calculated on the primary TNFα concentrations in comparison with the LPS-challenged control group using ANOVA with subsequent Dunnett's Test provided by GraphPadPrism software package. Differences with p<0.05 were considered significant. Dose-response curves were calculated by non-linear regression analysis within fixed limits of 0 to 100% inhibition. 50% inhibitory dose (ED50) values were derived from dose-response curves.

Compound | decrease of LPS-induced TNFα versus placebo (ATORVASTATIN hemi-calcium sesqui-hydrate alone 0.5 mg/kg by gavage, rats, no significant effect) [%] | ED50 [mg/kg] | increase of LPS-induced TNFα versus placebo (COMPOUND A alone 0.013 mg/kg by gavage, rats, no significant effect) [%]
CC(C)c1c(C(=O)Nc2ccccc2)c(-c2ccccc2)c(-c2ccc(F)cc2)n1CC[C@@H](O)C[C@H](O)CC(=O)O [ATORVASTATIN hemi-calcium sesqui-hydrate, (3S,5R)-7-[3-(anilinocarbonyl)-5-(4-fluorophenyl)-2-isopropyl-4-phenyl-1H-pyrrol-1-yl]-3,5-dihydroxyheptanoic acid] | 11 | 23 | 
COc1ccc(C2=NN(C3CCN(CC(N)=O)CC3)C(=O)[C@@H]3CC=CC[C@H]23)cc1OC [COMPOUND A, 2-{4-[(4aS,8aR)-4-(3,4-dimethoxyphenyl)-1-oxo-4a,5,8,8a-tetrahydro-1H-phthalazin-2-yl]-piperidin-1-yl}-acetamide] |  | 0.14 | 1
